Source: ChEMBL document CHEMBL1141332, “Cytotoxic metabolites from an Indonesian sponge Lendenfeldia sp” (J Nat Prod, 2007)

How the values were obtained:
Assay type in all cases: functional
MCF7 = assay: Cytotoxicity against human MCF7 cells
ACHN = assay: Cytotoxicity against human ACHN cells
OVCAR-4 = assay: Cytotoxicity against human OVCAR4 cells
MDA-MB-231 = assay: Cytotoxicity against human MDA-MB-231 cells
SK-MEL-5 = assay: Cytotoxicity against human SK-MEL-5 cells
BT-549 = assay: Cytotoxicity against human BT549 cells
NCI-H460 = assay: Cytotoxicity against human NCI-H460 cells
SNB-75 = assay: Cytotoxicity against human SNB75 cells
NCI-H322M = assay: Cytotoxicity against human NCI-H322M cells
UACC-257 = assay: Cytotoxicity against human UACC257 cells
786-0 = assay: Cytotoxicity against human 786-0 cells
HOP-62 = assay: Cytotoxicity against human HOP62 cells
SF-295 = assay: Cytotoxicity against human SF295 cells
U-251 = assay: Cytotoxicity against human U251cells
LOX IMVI = assay: Cytotoxicity against human LOX IMVI cells
EKVX = assay: Cytotoxicity against human EKVX cells
UO-31 = assay: Cytotoxicity against human UO31 cells
A498 = assay: Cytotoxicity against human A498 cells
KM12 = assay: Cytotoxicity against human KM12 cells
NCI-H226 = assay: Cytotoxicity against human NCI-H226 cells
OVCAR-8 = assay: Cytotoxicity against human OVCAR8 cells
RXF 393 = assay: Cytotoxicity against human RXF393 cells
HOP-92 = assay: Cytotoxicity against human HOP92 cells
[1] = read-out: Log LC50 (the source's name) (converted)

**Q.** `CC(=O)C1=CC[C@H]2[C@]3(C)CC[C@H]4C(C)(C)CCC[C@]4(C(=O)O)[C@H]3CC(=O)[C@]2(C)[C@H]1C=O` was tested. Which GI50 (MCF7) did it give?
**A.** 0.813 µM

**Q.** And the LC50 (MCF7)?
**A.** 51.3 µM

**Q.** And the TGI (MCF7; read-out: Log TGI (converted))?
**A.** 9.33 µM

**Q.** What about the GI50 (ACHN) of the same compound?
**A.** 0.479 µM

**Q.** What about the LC50 (ACHN) of the same compound?
**A.** 4.17 µM

**Q.** And the TGI (ACHN; read-out: Log TGI (converted))?
**A.** 1.7 µM

**Q.** And the GI50 (OVCAR-4)?
**A.** 0.813 µM

**Q.** And the CC50 (OVCAR-4; [1])?
**A.** 56.2 µM

**Q.** What about the TGI (OVCAR-4; read-out: Log TGI (converted)) of the same compound?
**A.** 4.68 µM

**Q.** And the GI50 (MDA-MB-231)?
**A.** 1.66 µM

**Q.** And the LC50 (MDA-MB-231)?
**A.** 6.31 µM

**Q.** What about the TGI (MDA-MB-231; read-out: Log TGI (converted)) of the same compound?
**A.** 3.24 µM

**Q.** And the GI50 (SK-MEL-5)?
**A.** 1.45 µM

**Q.** What about the CC50 (SK-MEL-5; [1]) of the same compound?
**A.** 5.25 µM

**Q.** What about the TGI (SK-MEL-5; read-out: Log TGI (converted)) of the same compound?
**A.** 2.75 µM

**Q.** What about the GI50 (BT-549) of the same compound?
**A.** 1.26 µM

**Q.** What about the LC50 (BT-549) of the same compound?
**A.** 6.17 µM

**Q.** And the TGI (BT-549; read-out: Log TGI (converted))?
**A.** 2.75 µM

**Q.** And the GI50 (NCI-H460)?
**A.** 1.66 µM

**Q.** And the CC50 (NCI-H460; [1])?
**A.** 8.71 µM

**Q.** And the TGI (NCI-H460; read-out: Log TGI (converted))?
**A.** 3.8 µM

**Q.** And the GI50 (SNB-75)?
**A.** 1.82 µM

**Q.** What about the CC50 (SNB-75; [1]) of the same compound?
**A.** 5.89 µM

**Q.** What about the TGI (SNB-75; read-out: Log TGI (converted)) of the same compound?
**A.** 3.31 µM

**Q.** What about the GI50 (NCI-H322M) of the same compound?
**A.** 3.55 µM

**Q.** And the CC50 (NCI-H322M; [1])?
**A.** 42.7 µM

**Q.** What about the TGI (NCI-H322M; read-out: Log TGI (converted)) of the same compound?
**A.** 10.5 µM

**Q.** What about the GI50 (UACC-257) of the same compound?
**A.** 2.4 µM

**Q.** And the CC50 (UACC-257; [1])?
**A.** 42.7 µM

**Q.** And the TGI (UACC-257; read-out: Log TGI (converted))?
**A.** 6.46 µM

**Q.** What about the GI50 (786-0) of the same compound?
**A.** 0.603 µM

**Q.** And the CC50 (786-0; [1])?
**A.** 4.37 µM

**Q.** And the TGI (786-0; read-out: Log TGI (converted))?
**A.** 1.91 µM

**Q.** What about the GI50 (HOP-62) of the same compound?
**A.** 1.35 µM

**Q.** What about the CC50 (HOP-62; [1]) of the same compound?
**A.** 5.75 µM

**Q.** What about the TGI (HOP-62; read-out: Log TGI (converted)) of the same compound?
**A.** 2.75 µM

**Q.** And the GI50 (SF-295)?
**A.** 1.45 µM

**Q.** And the CC50 (SF-295; [1])?
**A.** 6.92 µM

**Q.** And the TGI (SF-295; read-out: Log TGI (converted))?
**A.** 3.16 µM

**Q.** And the GI50 (U-251)?
**A.** 1.23 µM

**Q.** What about the CC50 (U-251; [1]) of the same compound?
**A.** 5.01 µM

**Q.** What about the TGI (U-251; read-out: Log TGI (converted)) of the same compound?
**A.** 2.45 µM

**Q.** What about the GI50 (LOX IMVI) of the same compound?
**A.** 1.45 µM

**Q.** And the CC50 (LOX IMVI; [1])?
**A.** 5.62 µM

**Q.** And the TGI (LOX IMVI; read-out: Log TGI (converted))?
**A.** 2.82 µM

**Q.** What about the GI50 (EKVX) of the same compound?
**A.** 2.14 µM

**Q.** And the CC50 (EKVX; [1])?
**A.** 25.1 µM

**Q.** And the TGI (EKVX; read-out: Log TGI (converted))?
**A.** 5.62 µM

**Q.** What about the GI50 (UO-31) of the same compound?
**A.** 1.2 µM

**Q.** And the LC50 (UO-31)?
**A.** 5.62 µM

**Q.** What about the TGI (UO-31; read-out: Log TGI (converted)) of the same compound?
**A.** 2.57 µM

**Q.** What about the GI50 (A498) of the same compound?
**A.** 1.12 µM

**Q.** What about the LC50 (A498) of the same compound?
**A.** 15.8 µM

**Q.** And the TGI (A498; read-out: Log TGI (converted))?
**A.** 3.63 µM

**Q.** What about the GI50 (KM12) of the same compound?
**A.** 1.41 µM

**Q.** What about the CC50 (KM12; [1]) of the same compound?
**A.** 21.4 µM

**Q.** What about the TGI (KM12; read-out: Log TGI (converted)) of the same compound?
**A.** 3.89 µM

**Q.** And the GI50 (NCI-H226)?
**A.** 1.82 µM

**Q.** And the TGI (NCI-H226; read-out: Log TGI (converted))?
**A.** 3.8 µM

**Q.** What about the GI50 (OVCAR-8) of the same compound?
**A.** 1.32 µM

**Q.** What about the CC50 (OVCAR-8; [1]) of the same compound?
**A.** > 100 µM

**Q.** What about the TGI (OVCAR-8; read-out: Log TGI (converted)) of the same compound?
**A.** 3.63 µM

**Q.** And the GI50 (RXF 393)?
**A.** 1.17 µM

**Q.** What about the TGI (RXF 393; read-out: Log TGI (converted)) of the same compound?
**A.** 2.57 µM

**Q.** And the GI50 (HOP-92)?
**A.** 1.91 µM

**Q.** What about the CC50 (HOP-92; [1]) of the same compound?
**A.** 7.41 µM

**Q.** And the TGI (HOP-92; read-out: Log TGI (converted))?
**A.** 3.72 µM
